{"source": "the METLIN SMRT retention time set (Domingo-Almenara et al. 2019)"}
{"assay": "gradient 5% acetonitrile 3 min, to 50% in 2 min, to 85% in 15 min, held 3 min, 100 µL/min", "conditions": "column: Zorbax Extend-C18 2.1 x 50 mm; eluents: water / acetonitrile, 0.1% formic acid", "how_it_was_run": "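Mixtures of ~100 pure standards were chromatographed on a Zorbax Extend-C18 column (2.1 × 50 mm, 1.8 μm) at 100 μL/min using water and acetonitrile, each with 0.1% formic acid. Detection used a quadrupole time-of-flight mass spectrometer in positive and negative ionization mode, and data collection spanned 3 months. Retention time was obtained from adduct peaks picked computationally and each checked manually.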", "units": {"RP-LC retention time": "s"}}
{"smiles": "COc1ccc(-c2cn3c(CC(=O)N4CCCc5ccccc54)csc3n2)cc1OC", "RP-LC retention time": 775}
{"smiles": "O=C(C1CC1)N1CCN(c2ccc(=O)n(-c3cccc(Cl)c3)n2)CC1", "RP-LC retention time": 738}
{"smiles": "O=c1n(Cc2cccc(C(F)(F)F)c2)nc2c(S(=O)(=O)N3CCOCC3)cccn12", "RP-LC retention time": 847}
{"smiles": "COc1ccccc1C(=O)Nc1nnc(SCc2ccc(Br)cc2)s1", "RP-LC retention time": 1140}
{"smiles": "O=C(Nc1ccc(F)cc1)C1CCCN(c2ccc3cc(S(=O)(=O)N4CCCC4)ccc3n2)C1", "note": "(stereo not given)", "RP-LC retention time": 634}
{"smiles": "O=C(NCC(O)Cc1ccccc1)c1c(F)cccc1F", "note": "(stereo not given)", "RP-LC retention time": 678}
{"smiles": "CC(C)Oc1ccc(-c2noc(CN3N=NC4C(=O)N(c5ccc(F)c(F)c5)C(=O)C43)n2)cc1", "note": "(stereo not given)", "RP-LC retention time": 1110}
{"smiles": "O=C(Nc1ccc(F)cc1)C1CCCN(S(=O)(=O)c2c[nH]c(C(=O)N3CCCC3)c2)C1", "note": "(stereo not given)", "RP-LC retention time": 787}
{"smiles": "CC(C)Cn1c(=O)c(N2CCN(S(=O)(=O)c3ccccc3F)CC2)nc2ccncc21", "RP-LC retention time": 743}
{"smiles": "COc1ccc(N2CC(C(=O)N3CCC(C(=O)N4CCC(C(N)=O)CC4)CC3)CC2=O)cc1", "note": "(stereo not given)", "RP-LC retention time": 600}
{"smiles": "OCCNCc1ccc(-c2cc(Cl)ccc2Cl)o1", "RP-LC retention time": 657}
{"smiles": "CCNc1cc(N2CCCC(CCC(=O)Nc3ccc(OC)cc3)C2)ncn1", "note": "(stereo not given)", "RP-LC retention time": 659}
{"smiles": "COc1ccc(NC(=O)Cn2nc3n(c2=O)CCCC3)cc1OC", "RP-LC retention time": 595}
{"smiles": "CCOC(=O)c1ccc(NS(=O)(=O)c2c[nH]c3ncccc23)cc1", "RP-LC retention time": 734}
{"smiles": "CCOC(=O)c1ncoc1-c1ccccc1C(=O)NC(C)C", "RP-LC retention time": 676}
{"smiles": "Cc1ccc(S(=O)(=O)N2CC(=O)N(c3cccc(F)c3)C(C)(C(=O)NCc3ccccc3)C2)cc1", "note": "(stereo not given)", "RP-LC retention time": 948}
{"smiles": "O=C(NC1CC1)[C@@H]1C[C@H](Oc2ccccc2)CN1C(=O)CCC1CCCC1", "RP-LC retention time": 886}
{"smiles": "Cc1cc(Cl)ccc1OCC(=O)Nc1ccc2c(c1)Sc1ncccc1C(=O)N2C", "RP-LC retention time": 911}
{"smiles": "CC(C)NC(=O)c1ccc(OCC2CCN(C(=O)c3c(F)cccc3Cl)CC2)cc1", "RP-LC retention time": 888}
{"smiles": "Cc1ccc(NC(=O)N2CCN(c3ccc(=O)n(-c4ccccc4)n3)CC2)cc1", "RP-LC retention time": 674}
{"smiles": "Fc1ccc(OCc2nnc3sc(COc4ccccc4)nn23)cc1", "RP-LC retention time": 938}
{"smiles": "Cc1c(Cc2ccccc2)[n+](=O)c2ccccc2n1[O-]", "RP-LC retention time": 1020}
{"smiles": "Cc1ccc(C)c(NC(=O)CCc2nc(N3CCOCC3)c3c(C)noc3n2)c1", "RP-LC retention time": 763}
{"smiles": "O=C(Cn1cccc1-c1nnc(C2CC2)o1)Nc1ccc(Cl)cc1F", "RP-LC retention time": 908}
{"smiles": "CC(C)CNC(=O)CCc1nc2ccccc2n(CC(=O)NCCc2ccc(Cl)cc2)c1=O", "RP-LC retention time": 855}
{"smiles": "Cc1ccc(S(=O)(=O)NNC(=O)C23CCC(CC2)C3)cc1", "RP-LC retention time": 873}
{"smiles": "Cc1ccc(C(=O)N2CCC3(CC2)N=C(c2ccc(Cl)cc2)NO3)cc1", "RP-LC retention time": 895}
{"smiles": "Cn1cc(S(=O)(=O)N2CCC(C(=O)NC3CCCCCCC3)CC2)cc1C(=O)N1CCCC1", "RP-LC retention time": 844}
{"smiles": "CC(=O)N1CCc2cc(CNC(=O)c3ccnn3C)ccc21", "RP-LC retention time": 622}
{"smiles": "CCS(=O)(=O)Nc1ccc(C2=NN(C(=O)c3ccco3)C(c3cccs3)C2)cc1", "note": "(stereo not given)", "RP-LC retention time": 764}
{"smiles": "O=C(CN(C(=O)c1ccc(F)c(F)c1)C1CCCCC1)N1CCNCC1", "RP-LC retention time": 635}
{"smiles": "Cc1cc(OCC(=O)NCc2ccccc2Cl)nc(N2CCCC2)n1", "RP-LC retention time": 620}
{"smiles": "Cc1nc(C)c(CCNC(=O)c2ccc(C)c([N+](=O)[O-])c2)s1", "RP-LC retention time": 614}
{"smiles": "NS(=O)(=O)c1ccc(CNC(=O)C2CCN(C(=O)NCc3cccs3)CC2)cc1", "RP-LC retention time": 612}
{"smiles": "Cc1noc(-c2nn(C)c3c2CN(C(=O)C2(c4ccccc4)CC2)CC3)n1", "RP-LC retention time": 757}
{"smiles": "CN1CCN(S(=O)(=O)c2ccc3nn(Cc4cccc(F)c4)c(=O)n3c2)CC1", "RP-LC retention time": 964}
{"smiles": "O=c1c2cc3c(cc2nc(SCc2nc(-c4ccccc4)no2)n1CC1CCCO1)OCO3", "note": "(stereo not given)", "RP-LC retention time": 1100}
{"smiles": "Cc1ccc(-c2ccc(=O)n(Cc3nc(-c4cccs4)no3)n2)cc1C", "RP-LC retention time": 1060}
{"smiles": "Cc1cnn(CC(=O)N2CCCCCCNC(=O)[C@@H]3CCCC[C@@H]32)c1", "RP-LC retention time": 716}
{"smiles": "Cc1ccccc1Nc1c(-c2ccccc2F)nc2ccccn12", "RP-LC retention time": 707}
{"smiles": "Fc1ccccc1-c1noc(NCC2CCCO2)n1", "note": "(stereo not given)", "RP-LC retention time": 748}
{"smiles": "O=C(Cn1ccc2sccc2c1=O)NCc1ccc(F)cc1", "RP-LC retention time": 694}
{"smiles": "CN1C(=O)c2cccn2CC1CNC(=O)Nc1ccccc1", "note": "(stereo not given)", "RP-LC retention time": 647}
{"smiles": "CCc1cnc2c(c1SCC(=O)N1CCCC1)c(=O)n(C)c(=O)n2C", "RP-LC retention time": 732}
{"smiles": "Cc1ccc(-c2ccc(=O)n(Cc3noc(C(=O)NCCN4CCC(C)CC4)n3)n2)cc1", "RP-LC retention time": 677}
